Data taken from patent publication US20040024055A1, “Pharmaceutical composition containing the exract of saururus chinensis baill useful as an anticancer agent and a process for the preparation thereof” (priority 2000, published 2004).
Values after ≈ are worked out from the molar mass of the structure shown.

Columns and labels:
[1] = Anticancer activity of sauristolactam separated from saururus; settings: separated from saururus and crystallized
NCI-H69 = test: MTT analysis, anticancer activity; format: cell-based, human; settings: 10 μg/ml sample
3T3-L1 = test: MTT analysis, cytotoxicity against normal cell line; format: cell-based, mouse; settings: 10 μg/ml sample
HS683 = test: MTT analysis, anticancer activity; format: cell-based, human; settings: 48 hr
ME-180 = test: MTT analysis, anticancer activity; format: cell-based, human; settings: 10 μg/ml sample
MCF-7 = test: MTT analysis, anticancer activity; format: cell-based, human; settings: MTT, 48 hr
mouse [2] = settings: reported by Rao et al.; cited from earlier work
HS-578T = test: MTT analysis, anticancer activity; format: cell-based, human; settings: 10 μg/ml sample
KATO-III = test: MTT analysis, anticancer activity; format: cell-based, human; settings: MTT, 48 hr
T-47D = test: MTT analysis, anticancer activity; format: cell-based, human; settings: 48 hr
293 = test: MTT analysis, cytotoxicity against normal cell line; format: cell-based, human; settings: 10 μg/ml sample
BT-549 = test: MTT analysis, anticancer activity; format: cell-based, human; settings: 10 μg/ml sample
CPAE = test: MTT analysis, cytotoxicity against normal cell line; format: cell-based, bovine; settings: 10 μg/ml sample
SK-BR-3 = test: MTT analysis, anticancer activity; format: cell-based, human; settings: 48 hr
HS-746T = test: MTT analysis, anticancer activity; format: cell-based, human; settings: 10 μg/ml sample
[3] = tested on: DU-145 prostate cancer cell line; test: MTT analysis, anticancer activity; format: cell-based, human; settings: 48 hr
Description: (§1) To be specific, SK-Hep-1 cell, which is liver cancer cell line, was added to 96-well microplate (Falcon, USA) with the concentration of 3×10^5 cells/ml by 100 μl per well. Each extracted and separated substance dissolved in DMSO was added to the well by 100 μl for the final concentration to be from 50 μg/ml to 0.0244 μg/ml, with 200 μl of final volume. Each cell was cultured for 48 hr in a culture medium of 37° C. and 5% CO2. After cultivation, 20 μl of phosphate buffer solution containing 5 mg/ml of MTT (3-[4,5-dimethylthiazol-2-yl]-2,5-diphenyltetrazoliumbromide, Sigma Co.) reagent was added to each well, and then cultured for 4 hr. After taking 100 μl of supernant from each culture medium, 100 μl of 0.04N hydrochloric acid-isopropanol was added. After letting alone overnight, absorbance was measured at 560 nm using automatic Eliza detector (Molecular Divices Corp., USA). Anticancer activity of each extracted and separated substance was calculated from the absorbance value by Equation 1 and was expressed in terms of cell.
(§2) Average Existence Rate(%)=(Absorbance of Treated Group)/(Absorbance of Control Group)×100

BT-20 = test: MTT analysis, anticancer activity; format: cell-based, human; settings: 48 hr
HeLa = test: MTT analysis, anticancer activity; format: cell-based, human; settings: 48 hr
HT-29 = test: MTT analysis, anticancer activity; format: cell-based, human; settings: 10 μg/ml sample
A431 = test: MTT analysis, anticancer activity; format: cell-based, human; settings: 48 hr
NIH-3T3 = test: MTT analysis, cytotoxicity against normal cell line; format: cell-based, mouse; settings: 10 μg/ml sample
[4] = tested on: PC-3 prostate cancer cell line; test: MTT analysis, anticancer activity; format: cell-based, human; settings: 48 hr
Description: as §1, §2

mouse [5] = settings: intraperitoneal, Rao et al.; cited from earlier work
T98G = test: MTT analysis, anticancer activity; format: cell-based, human; settings: 48 hr
HT1080 = test: MTT analysis, anticancer activity; format: cell-based, human; settings: 48 hr
CHO = test: MTT analysis, cytotoxicity against normal cell line; format: cell-based, Chinese hamster; settings: 10 μg/ml sample
[6] = tested on: SK-Hep-1 liver cancer cell line; test: MTT analysis, anticancer activity; format: cell-based, human; settings: 48 hr
Description: as §1, §2

SK-N-SH = test: MTT analysis, anticancer activity; format: cell-based, human; settings: 48 hr
SK-MEL-28 = test: MTT analysis, anticancer activity; format: cell-based, human; settings: 48 hr
HS27 = test: MTT analysis, cytotoxicity against normal cell line; format: cell-based, human; settings: 10 μg/ml sample
LoVo = test: MTT analysis, anticancer activity; format: cell-based, human; settings: 10 μg/ml sample
Hep-2 = test: MTT analysis, anticancer activity; format: cell-based, human; settings: MTT, 48 hr
SK-OV-3 = test: MTT analysis, anticancer activity; format: cell-based, human; settings: 10 μg/ml sample
Solubility = format: physicochemical

SMILES: COc1c(O)cc2c3c(cc4ccccc4c13)N(C)C2=O [sauristolactam]
- anticancer activity [1]: no anticancer activity was detected

SMILES: COc1ccc(C(O)C(C)Oc2ccc(C3OC(c4ccc(OC(C)[C@@H](O)c5ccc(OC)c(OC)c5)c(OC)c4)C(C)C3C)cc2OC)cc1OC (single isomer, unassigned) [HNP-98701C, manassantin A]
- Existence rate class, NCI-H69 (in IC50 table) (NCI-H69): * (Existence rate larger than 60% for 10 μg/ml sample)
- Existence rate class, 3T3-L1 (in IC50 table) (3T3-L1): N.E. (Not effective; existence rate larger than 90% for 10 μg/ml sample)
- IC50 HS683 (HS683): 0.2170 µg/mL (≈ 0.296 µM)
- Existence rate class, ME-180 (in IC50 table) (ME-180): * (Existence rate larger than 60% for 10 μg/ml sample)
- IC50 MCF-7 (MCF-7): >10 µg/mL
- 50% lethal dose (LD50) (mouse [2]): 5.2 mg/kg
- Existence rate class, HS-578T (in IC50 table) (HS-578T): N.E. (Not effective; existence rate larger than 90% for 10 μg/ml sample)
- IC50 KATO-III (KATO-III): 0.7005 µg/mL (≈ 0.956 µM)
- IC50 T-47D (T-47D): 0.1249 µg/mL (≈ 0.17 µM)
- Existence rate class, 293 (in IC50 table) 293: * (Existence rate larger than 60% for 10 μg/ml sample)
- Existence rate class, BT-549 (in IC50 table) (BT-549): * (Existence rate larger than 60% for 10 μg/ml sample)
- Existence rate class, CPAE (in IC50 table) (CPAE): * (Existence rate larger than 60% for 10 μg/ml sample)
- IC50 SK-BR-3 (SK-BR-3): 0.0632 µg/mL (≈ 0.0862 µM)
- Existence rate class, HS-746T (in IC50 table) (HS-746T): * (Existence rate larger than 60% for 10 μg/ml sample)
- IC50 DU-145 [3]: 0.0263 µg/mL (≈ 0.0359 µM)
- IC50 BT-20 (BT-20): 0.0629 µg/mL (≈ 0.0858 µM)
- IC50 HeLa (HeLa): 0.1838 µg/mL (≈ 0.251 µM)
- Existence rate class, HT-29 (in IC50 table) (HT-29): * (Existence rate larger than 60% for 10 μg/ml sample)
- IC50 A431 (A431): 0.3860 µg/mL (≈ 0.527 µM)
- Existence rate class, NIH-3T3 (in IC50 table) (NIH-3T3): N.E. (Not effective; existence rate larger than 90% for 10 μg/ml sample)
- IC50 PC-3 [4]: 0.0446 µg/mL (≈ 0.0609 µM)
- spontaneous movement 50% reduction concentration (IC50) (mouse [5]): 0.21 ± 0.02 mg/kg
- IC50 T98G (T98G): 0.1014 µg/mL (≈ 0.138 µM)
- IC50 HT1080 (HT1080): 0.1753 µg/mL (≈ 0.239 µM)
- Existence rate class, CHO (in IC50 table) (CHO): * (Existence rate larger than 60% for 10 μg/ml sample)
- IC50 SK-Hep-1 [6]: 0.0560 µg/mL (≈ 0.0764 µM)
- IC50 SK-N-SH (SK-N-SH): 0.5392 µg/mL (≈ 0.736 µM)
- IC50 SK-MEL-28 (SK-MEL-28): 0.0725 µg/mL (≈ 0.0989 µM)
- Existence rate class, HS27 (in IC50 table) (HS27): N.E. (Not effective; existence rate larger than 90% for 10 μg/ml sample)
- Existence rate class, LoVo (in IC50 table) (LoVo): * (Existence rate larger than 60% for 10 μg/ml sample)
- IC50 Hep-2 (Hep-2): 0.0367 µg/mL (≈ 0.0501 µM)
- Existence rate class, SK-OV-3 (in IC50 table) (SK-OV-3): N.E. (Not effective; existence rate larger than 90% for 10 μg/ml sample)
- Solubility in methanol, ethanol, ethyl acetate, chloroform and dimethylsulfoxide (DMSO) (Solubility): highly soluble
- Solubility in water, acetone, ether and hexane (Solubility): insoluble
